Assays:
Format in all cases: cell-based, human
VCaP cells = assay: Anti-proliferative toxicity against prostate cancer cell line Vcap (CCK8); conditions: Homo sapiens, 72 h, 3 days, CCK8
Procedure, shortened: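 VCaP cells (DMEM, 10% FBS) seeded 20000 cells/well, cultured 72 h, then exposed in triplicate to compound at final well concentrations of 0.00001–0.16 μM for 3 days at 37 °C, 5% CO2. Viability by CCK8, 1–4 h at 37 °C, absorbance at 450 nm.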

22Rv1 cells = assay: Anti-proliferative toxicity against prostate cancer cell line 22Rv1 (CCK8); conditions: Homo sapiens, 72 h, 3 days, CCK8
Procedure, shortened: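 22Rv1 cells pre-cultured for 48 h, then exposed to compounds at 0.00001-1.0 μM final, in triplicate, for 3 days. Viability read by CCK8 absorbance at 450 nm after 1-4 h at 37 °C.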

PC-3 cells = assay: Anti-proliferative toxicity against prostate cancer cell line PC-3 (CCK8); conditions: Homo sapiens, 72 h, 3 days
Procedure, shortened: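 PC-3 cells (4000/well, pre-cultured 24 h) exposed in triplicate to compound at final 0.00001-1.0 μM for 3 days at 37 °C, 5% CO2. Viability read by CCK8, 1-4 h at 37 °C, absorbance at 450 nm.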

Structure (SMILES) | IC50 (VCaP cells) | IC50 (22Rv1 cells) | IC50 (PC-3 cells)
C[C@]12C=CC(=O)N[C@@H]1CC[C@@H]1[C@@H]2CC[C@]2(C)[C@@H](C(=O)Nc3cccc(OCCCCCCNc4ccc5c(c4)C(=O)N(C4CCC(=O)NC4=O)C5=O)c3)CC[C@@H]12 (stereo partly drawn) [C36, N-(3-((6-((5-(2-(3-(2,6-dioxopiperidine))-isoindole-1,3-dione))amino)hexyl)oxy)phenyl)-3-oxo-4-aza-5α-androst-1-ene-17β-carboxamide] | > 1000 nM | > 1000 nM | > 1000 nM
C[C@]12C=CC(=O)N[C@@H]1CC[C@@H]1[C@@H]2CC[C@]2(C)[C@@H](C(=O)Nc3cccc(OCCCCCCCNc4cccc5c4C(=O)N(C4CCC(=O)NC4=O)C5=O)c3)CC[C@@H]12 (stereo partly drawn) [C37, N-(3-((7-((4-(2-(3-(2,6-dioxopiperidine))-isoindole-1,3-dione))amino)heptyl)oxy)phenyl)-3-oxo-4-aza-5α-androst-1-ene-17β-carboxamide] | > 1000 nM | > 1000 nM | > 1000 nM
C[C@]12C=CC(=O)N[C@@H]1CC[C@@H]1[C@@H]2CC[C@]2(C)[C@@H](C(=O)Nc3cccc(OCCCCCCCCNc4cccc5c4C(=O)N(C4CCC(=O)NC4=O)C5=O)c3)CC[C@@H]12 (stereo partly drawn) [C39, N-(3-((8-((4-(2-(3-(2,6-dioxopiperidine))-isoindole-1,3-dione))amino)octyl)oxy)phenyl)-3-oxo-4-aza-5α-androst-1-ene-17β-carboxamide] | > 1000 nM | > 1000 nM | > 1000 nM
C[C@]12C=CC(=O)N[C@@H]1CC[C@@H]1[C@@H]2CC[C@]2(C)[C@@H](C(=O)Nc3cccc(OCCCCCCCCNc4ccc5c(c4)C(=O)N(C4CCC(=O)NC4=O)C5=O)c3)CC[C@@H]12 (stereo partly drawn) [C40, N-(3-((8-((5-(2-(3-(2,6-dioxopiperidine))-isoindole-1,3-dione))amino)octyl)oxy)phenyl)-3-oxo-4-aza-5α-androst-1-ene-17β-carboxamide] | 10 to 1000 nM | > 1000 nM | > 1000 nM
C[C@]12C=CC(=O)N[C@@H]1CC[C@@H]1[C@@H]2CC[C@]2(C)[C@@H](C(=O)Nc3cccc(OCCCNc4cccc5c4CN(C4CCC(=O)NC4=O)C5=O)c3)CC[C@@H]12 (stereo partly drawn) [C41, N-(3-((3-((4-(2-(3-(2,6-dioxopiperidine))-1-oxo-2,3-dihydro-1H-isoindol))amino)propyl)oxy)phenyl)-3-oxo-4-aza-5α-androst-1-ene-17β-carboxamide] | 0.1 to 10 nM | 0.1 to 10 nM | > 1000 nM
C[C@]12C=CC(=O)N[C@@H]1CC[C@@H]1[C@@H]2CC[C@]2(C)[C@@H](C(=O)Nc3cccc(OCC4CCN(c5cccc6c5C(=O)N(C5CCC(=O)NC5=O)C6=O)CC4)c3)CC[C@@H]12 (stereo partly drawn) [C42, N-(3-((4-methyl-1-(4-(2-(3-(2,6-dioxopiperidine))-isoindole-1,3-dione))-piperidinyl)oxy)phenyl)-3-oxo-4-aza-5α-androst-1-ene-17β-carboxamide] | > 1000 nM | > 1000 nM | > 1000 nM
C[C@]12C=CC(=O)N[C@@H]1CC[C@@H]1[C@@H]2CC[C@]2(C)[C@@H](C(=O)Nc3cccc(N4CCC(CN5CCN(c6cccc7c6C(=O)N(C6CCC(=O)NC6=O)C7=O)CC5)CC4)c3)CC[C@@H]12 (stereo partly drawn) [C44, 1-(4-(1-(3-(3-oxo-4-aza-5α-androst-1-ene-17β-carboxamido)phenyl)piperidine))methyl-4-(4-(2-(3-(2,6-dioxopiperidine))-isoindole-1,3-dione))piperazine] | > 1000 nM | > 1000 nM | > 1000 nM
C[C@]12C=CC(=O)N[C@@H]1CC[C@@H]1[C@@H]2CC[C@]2(C)[C@@H](C(=O)Nc3cccc(N4CCC(CN5CCN(c6ccc7c(c6)C(=O)N(C6CCC(=O)NC6=O)C7=O)CC5)CC4)c3)CC[C@@H]12 (stereo partly drawn) [C45, 1-(4-(1-(3-(3-oxo-4-aza-5α-androst-1-ene-17β-carboxamido)phenyl)piperidine)methyl)-4-(5-(2-(3-(2,6-dioxopiperidine))-isoindole-1,3-dione))piperazine] | > 1000 nM | > 1000 nM | > 1000 nM

— patent US20250213701A1, “MEDICAMENT FOR TREATING HUMAN TUMOR BASED ON ERF3A-TARGETING PROTEOLYSIS MECHANISM” (SUZHOU DEGEN BIO-MEDICAL CO., LTD., priority 2022, published 2025)
